Data set [1] concerns Lymphocyte. The data set can be described thus: Induction of apoptosis in MRL/MpJ-lpr/lpr mouse spleen lymphocytes assessed as increase in apoptotic cells in spleen at 1 mg/kg, ip by annexin V method. Format: functional, organism-based. Set-up: dose 1 mg/kg.
The subject of data set [2] is Jurkat. The data set can be described thus: Induction of apoptosis in human Jurkat cells assessed as cell death after 18 hrs. Format: functional, cell-based.
Data set [3] relates to Splenocyte. The data set can be described thus: Induction of apoptosis in mouse primary splenocytes assessed as cell death after 18 hrs. Format: functional, cell-based.
Data set [4] deals with Jurkat. Kind of data set: Induction of apoptosis in human Jurkat cells assessed as PARP cleavage at 5 uM after 16 hrs. Format: functional, cell-based.
The subject of data set [5] is Jurkat. The data set can be described thus: Inhibition of wild type human Jurkat cells after 18 hrs by MTT assay. Format: functional, cell-based.
Data set [6] is described as follows: Drug level in MRL/Mpj-lpr/lpr mouse thymus assessed as (R)-2-amino-4-(4-(heptyloxy)phenyl)-2-methylbutyl dihydrogen phosphate levels per mg of tissue at 1 mg/kg, ip after 1 hr. Format: ADME, organism-based. Details: dose 1 mg/kg, route intraperitoneal. To be noted: in vivo.
In data set [7] the test system is Jurkat. The data set can be described thus: Induction of apoptosis in human Jurkat cells assessed as activation of effector capsases after 18 hrs. Format: functional, cell-based.
Another data set deals with Spleen. The data set can be described thus: Drug level in MRL/MpJ-lpr/lpr mouse spleen assessed as (R)-2-amino-4-(4-(heptyloxy)phenyl)-2-methylbutyl dihydrogen phosphate levels per mg of tissue at 1 mg/kg, ip after 1 hr. Format: ADME, organism-based. To be noted: in vivo. Details: dose 1 mg/kg, route intraperitoneal.
Data set [8] deals with Jurkat. Kind of data set: Induction of apoptosis in human Jurkat cells assessed as increase in cytosolic calcium levels after 8 hrs. Format: functional, cell-based.
Data set [9] has as its system Jurkat. The data set can be described thus: Inhibition of 2-amino-4-(4-heptyloxyphenyl)-2-methylbutanol-resistant human Jurkat SBR1 mutant cells proliferation after 18 hrs by MTT assay. Format: functional, cell-based. In general terms: Formazan colour is commonly taken as a measure of viable cells.
The test system of data set [10] is Lymphocyte. The data set can be described thus: Induction of apoptosis in MRL/MpJ-lpr/lpr mouse thymus lymphocytes assessed as increase in apoptotic cells in thymus at 1 mg/kg, ip by annexin V method. Set-up: dose 1 mg/kg. Format: functional, organism-based.
Data set [11] concerns Jurkat. The data set can be described thus: Inhibition of human 2-amino-4-(4-heptyloxyphenyl)-2-methylbutanol-resistant human Jurkat SBR3 mutant cells proliferation after 18 hrs by MTT assay. Format: functional, cell-based.
The test system of data set [12] is Jurkat. The data set can be described thus: Inhibition of 2-amino-4-(4-heptyloxyphenyl)-2-methylbutanol-resistant human Jurkat SBR2 mutant cells proliferation after 18 hrs by MTT assay. Format: functional, cell-based.
The subject of data set [13] is Jurkat. The data set can be described thus: Induction of apoptosis in human Jurkat SBR1 cells expressing Sphk2 after 18 hrs by MTT assay. Format: functional, cell-based.
Data set [14] relates to Jurkat. The data set can be described thus: Resistance index, ratio of IC50 for 2-amino-4-(4-heptyloxyphenyl)-2-methylbutanol-resistant human Jurkat SBR1 mutant cells to IC50 for human wild type Jurkat cells. Format: functional.
Data set [15] in a line: Cell viability of Sphk2-knock out mouse embryonic fibroblasts assessed as resistant cells after 18 hrs by propidium iodide exclusion assay. Format: functional, cell-based. As to conditions: Fibroblast.
Data set [16] relates to Splenocyte. The data set can be described thus: Induction of apoptosis in Sphk2-knock out mouse primary splenocytes assessed as resistant cells after 18 hrs by propidium iodide exclusion assay. Format: functional, cell-based.
In data set [17] the test system is Jurkat. Kind of data set: Induction of apoptosis in human Jurkat SBR1 cells expressing Sphk1 after 18 hrs by MTT assay. Format: functional, cell-based.
Data set [18] relates to Jurkat. The data set can be described thus: Induction of apoptosis in human Jurkat SBR1 mutant cells assessed as activation of effector capsases after 18 hrs. Format: functional, cell-based.
For data set [19], the system named is Jurkat. Kind of data set: Resistance index, ratio of IC50 for 2-amino-4-(4-heptyloxyphenyl)-2-methylbutanol-resistant human Jurkat SBR2 mutant cells to IC50 for human wild type Jurkat cells. Format: functional.
Data set [20] concerns Jurkat. The data set can be described thus: Resistance index, ratio of IC50 for 2-amino-4-(4-heptyloxyphenyl)-2-methylbutanol-resistant human Jurkat SBR3 mutant cells to IC50 for human wild type Jurkat cells. Format: functional.
In data set [21] the test system is Splenocyte. The data set can be described thus: Induction of apoptosis in Sphk1-knock out mouse primary splenocytes assessed as resistant cells after 18 hrs by propidium iodide exclusion assay. Format: functional, cell-based.
The subject of data set [22] is Lymphocyte. Kind of data set: Induction of apoptosis in MRL/MpJ-lpr/lpr mouse lymph node lymphocytes assessed as increase in apoptotic cells in lymph nodes at 1 mg/kg, ip by annexin V method. Format: functional, organism-based. Details: dose 1 mg/kg.
Data set [23] concerns Jurkat. Kind of data set: Reversal of inhibition of mitochondrial function in human Jurkat cells after 18 hrs in presence of Z-VAD-fmk. Format: functional, cell-based.
In data set [24] the target is Sphingosine kinase 1 (Homo sapiens) (UniProt Q9NYA1). The data set can be described thus: Inhibition of Sphk1 expressed in HEK293 cells. Format: cell-based.

The structures appear in SMILES notation. Active and inactive are the calls of the source. The rule behind the calls is not given here.

Chain of Sphingosine kinase 1 (Homo sapiens) (Q9NYA1 whole entry): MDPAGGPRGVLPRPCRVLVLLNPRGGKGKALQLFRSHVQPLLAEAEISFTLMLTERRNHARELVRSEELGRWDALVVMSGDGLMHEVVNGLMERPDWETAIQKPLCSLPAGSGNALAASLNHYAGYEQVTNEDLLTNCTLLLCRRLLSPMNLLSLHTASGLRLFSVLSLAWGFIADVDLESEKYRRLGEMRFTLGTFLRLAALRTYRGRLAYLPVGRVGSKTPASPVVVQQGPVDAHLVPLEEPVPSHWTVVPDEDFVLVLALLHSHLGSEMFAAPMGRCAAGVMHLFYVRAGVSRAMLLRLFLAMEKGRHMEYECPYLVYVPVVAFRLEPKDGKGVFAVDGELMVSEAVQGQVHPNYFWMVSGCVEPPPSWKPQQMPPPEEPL

On to `CCCCCCCOc1ccc(CC[C@](C)(N)CO)cc1`, for which the result with Lymphocyte [1] was Active. Also, the outcome in the data set on Jurkat [2], in the data set on Splenocyte [3] and in the data set on Jurkat [4] was inactive.

Consider `CCCCCCCOc1ccc(CC[C@@](C)(N)CO)cc1`, for which the IC50 in the data set on Jurkat [5] came to 2.32 µM; in the data set with Jurkat [9] it was 8.72 µM; with Jurkat [11], 7.12 µM; with Jurkat [12], 7.72 µM. The Activity (in data set [6]; with Spleen) was < 0.2 pmol/mg in each case. Also, the outcome (with Jurkat [7]; with Jurkat [8]; with Lymphocyte [1]; with Jurkat [13]; in data set [15]; with Splenocyte [16]) was Active. For the same molecule, the outcome in the data set on Jurkat [17], with Jurkat [4] and in the data set with Lymphocyte [22] was Active. In addition, the result in the data set with Lymphocyte [10], with Jurkat [18] and in the data set on Splenocyte [21] was inactive. The “Ratio IC50” value with Jurkat [14] is given as 3.8; in the data set on Jurkat [19], 3.3; in the data set on Jurkat [20] it was 3.1.

Consider `COc1cc([C@@H]2c3cc4c(cc3[C@@H](O[C@@H]3O[C@@H]5CO[C@@H](C)O[C@H]5[C@H](O)[C@H]3O)[C@H]3COC(=O)[C@H]23)OCO4)cc(OC)c1O`, for which the outcome with Jurkat [9], in the data set on Jurkat [11] and in the data set on Jurkat [12] was Active.

`CCCCCCCCc1ccc(CCC(N)(CO)CO)cc1`: in the data set with Jurkat [23], the outcome was Active.

For the molecule `CCCCCCCCCCCCCCC[C@@H](O)[C@@H](N)CO` [DIHYDROSPINGOSINE], the IC50 was 3.53 µM with Jurkat [5], 4.9 µM in the data set with Jurkat [9], 6.31 µM in the data set with Jurkat [11] and 3.68 µM with Jurkat [12]. The “Ratio IC50” value is on record as 1.4 in the data set on Jurkat [14], 1.3 in the data set on Jurkat [19] and 1.8 in the data set on Jurkat [20].

For `CCCCCCCOc1ccc(CC[C@@](C)(N)COP(=O)(O)O)cc1`, the outcome (in the data set on Jurkat [5]; in data set [24]; in the data set on Splenocyte [3]) was inactive.

Consider `CCCCCCCCCCCCCC[C@@H](O)[C@@H](O)[C@@H](N)CO` (single isomer, unassigned) [PHYTOSPHINGOSINE], for which the IC50 in the data set on Jurkat [5] came out at 3.75 µM; in the data set with Jurkat [9], 6.57 µM; in the data set on Jurkat [11], 4.12 µM; in the data set on Jurkat [12] it was 5.29 µM. The “Ratio IC50” value in the data set on Jurkat [14] worked out at 1.8; in the data set with Jurkat [19], 1.4; with Jurkat [20] it was 1.1.

For `CCCCCCCCCCCCC/C=C/[C@@H](O)[C@@H](N)CO` [SPHINGOSINE], the IC50 was determined as 2.01 µM with Jurkat [5], 3.48 µM in the data set with Jurkat [9], 3.38 µM in the data set on Jurkat [11] and 2.88 µM with Jurkat [12]. The “Ratio IC50” value was 1.7 in the data set on Jurkat [14], 1.4 in the data set with Jurkat [19] and 1.7 in the data set on Jurkat [20]. In addition, the result in [15] was inactive.

For orientation: IC50 means the concentration at which inhibition is half-maximal. A low value points to inhibition by little substance.

These data come from ChEMBL document CHEMBL1156454, “Essential requirement for sphingosine kinase 2 in a sphingolipid apoptosis pathway activated by FTY720 analogues” (J Biol Chem, 2007).
